# What was measured:
# T. vaginalis PNP = experiment: Substrate cleavage by wild-type Tv-PNP (HPLC); format: biochemical, Trichomonas vaginalis; details: for rate of enzymatic cleavage by T. vaginalis PNP: 100 micromolar substrate, HPLC separation of base from nucleoside; for activity of Tv-PNP as compared to wild-type E. coli PNP: summary of Table 1
# Experimental: (§1) The method quantitatively measures the cleavage of substrates in vitro. The purine analog nucleosides (0.1 mM in 500 μl of 100 mM HEPES, pH 7.4, 50 mM potassium phosphate) are combined with 100 μg/ml Tv-PNP or wild-type E. coli PNP. The reaction mixtures are incubated at 25° C. for 1 hour, and the reactions stopped by boiling each sample for 2 minutes. Protein concentration and time of assay are varied depending on activity of enzyme for a particular substrate. Each sample is analyzed by reverse phase HPLC to measure conversion from substrate to product. The nucleoside and purine analogs are eluted from a Spherisorb ODSI (5 μm) column (Keystone Scientific, Inc., State College, Pa.) with a solvent containing 50 mM ammonium dihydrogen phosphate (95%) and acetonitrile (5%). Products are detected by absorbance at 254 nm, and are identified by comparing their retention times and absorption spectra with authentic control samples.
# Numerous compounds are tested for efficiency as substrate for Tv-PNP in parallel comparison with E. coli PNP. The compounds include various analogs of adenosine, of inosine, of MeP-dR, and of fluoro- or chloro-substituted adenosine. The enzymes are incubated with 100 micromolar of each compound listed in the table and the rate of enzymatic cleavage is determined by HPLC separation of the base from the nucleoside. […] It is appreciated that the greater biological activity of the Tv-PNP enzyme allows for greater activity in impairing abnormal cell growth when the Tv-PNP is used for treatment of pathological conditions using F-araA as a prodrug substrate.
# E. coli PNP = E. coli PNP (Escherichia coli, UniProt P0ABP8); experiment: Substrate cleavage by wild-type E. coli PNP (HPLC); format: biochemical; details: 100 micromolar substrate, HPLC separation of base from nucleoside
# Experimental: as §1
# Numerous compounds are tested for efficiency as substrate for Tv-PNP in parallel comparison with E. coli PNP. […] The enzymes are incubated with 100 micromolar of each compound listed in the table and the rate of enzymatic cleavage is determined by HPLC separation of the base from the nucleoside.
# Sequence of E. coli PNP (P0ABP8 whole entry): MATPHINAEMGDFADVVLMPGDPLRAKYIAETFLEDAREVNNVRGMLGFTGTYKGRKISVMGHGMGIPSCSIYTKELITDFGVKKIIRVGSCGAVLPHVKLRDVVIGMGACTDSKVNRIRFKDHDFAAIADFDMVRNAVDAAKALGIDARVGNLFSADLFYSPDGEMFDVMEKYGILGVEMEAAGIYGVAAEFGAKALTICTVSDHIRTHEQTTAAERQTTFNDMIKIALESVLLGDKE
Molecule,rate of enzymatic cleavage by T. vaginalis PNP (T. vaginalis PNP),rate of enzymatic cleavage by E. coli PNP (E. coli PNP),rate of enzymatic cleavage by T. vaginalis PNP (T. vaginalis PNP; listed as Cl-dAdo),activity of Tv-PNP as compared to wild-type E. coli PNP (T. vaginalis PNP),rate of enzymatic cleavage by E. coli PNP (E. coli PNP; listed as Cl-dAdo)
9-β-D-pyranosyl-adenine,2 nanomoles per milligrams per hour,<1 nanomoles per milligrams per hour,–,–,–
"Nc1nc(Cl)nc2c1ncn2[C@H]1C[C@H](O)[C@@H](CO)O1 [2-Cl-2′-deoxyadenosine (Cl-dAdo), 2-chloro-2′-deoxyadenosine, reference compound]","352,000 nanomoles per milligrams per hour","39,000 nanomoles per milligrams per hour","320,000 nanomoles per milligrams per h",more activity,"39,000 nanomoles per milligrams per h"
"Nc1nc(Cl)nc2c1ncn2[C@H]1C[C@H](O)[C@@H](CO)O1 [2-Cl-2′-deoxyadenosine (α-L), 2-Cl-2′-deoxyadenosine]",<8 nanomoles per milligrams per hour,<1 nanomoles per milligrams per hour,–,–,–
"Nc1nc(Cl)nc2c1ncn2[C@H]1C[C@H](O)[C@@H](CO)O1 [2-Cl-2′-deoxyadenosine (β-L), 2-Cl-2′-deoxyadenosine]",<8 nanomoles per milligrams per hour,<1 nanomoles per milligrams per hour,–,–,–
"Nc1nc(F)nc2c1ncn2[C@H]1C[C@H](O)[C@@H](CO)O1 [2-F-2′-deoxyadenosine (F-dAdo), 2-fluoro-2′-deoxyadenosine]","400,000 nanomoles per milligrams per hour","435,000 nanomoles per milligrams per hour",–,–,–
"C[C@H]1O[C@@H](n2cnc3c(N)nc(F)nc32)[C@H](O)[C@@H]1O [2-F-5′-deoxy-adenosine, 2-fluoro-5′-deoxyadenosine]","50,000 nanomoles per milligrams per hour","29,000 nanomoles per milligrams per hour",–,more activity,–
Nc1nc(F)nc2c1ncn2[C@@H]1O[C@H](CO)[C@@H](O)[C@H]1O [2-F-adenosine],"185,000 nanomoles per milligrams per hour","215,000 nanomoles per milligrams per hour",–,–,–
"Nc1ncnc2c1ncn2[C@H]1CC[C@@H](CO)O1 [2′,3′-dideoxyadenosine]",640 nanomoles per milligrams per hour,<2 nanomoles per milligrams per hour,–,–,–
CO[C@@H]1[C@H](O)[C@@H](CO)O[C@H]1n1cnc2c(N)ncnc21 [2′-O^methyl-adenosine],<10 nanomoles per milligrams per hour,<1 nanomoles per milligrams per hour,–,–,–
"OC[C@H]1O[C@@H](n2cnc3c(O)ncnc32)C[C@@H]1O [2′-deoxyinosine, reference compound]","660,000 nanomoles per milligrams per hour","733,000 nanomoles per milligrams per hour",–,–,–
"Nc1ncnc2c1ncn2[C@@H]1O[C@H](CO)C[C@H]1O [3′-deoxyadenosine (cordycepin), 3′-deoxyadenosine, reference compound]","2,000 nanomoles per milligrams per hour",<2 nanomoles per milligrams per hour,–,–,–
NC[C@H]1O[C@@H](n2cnc3c(N)ncnc32)[C@H](O)[C@@H]1O [5′-amino-5′-deoxyadenosine],"4,200 nanomoles per milligrams per hour",540 nanomoles per milligrams per hour,–,–,–
NC(=O)[C@H]1O[C@@H](n2cnc3c(N)ncnc32)[C@H](O)[C@@H]1O [5′-carboxamide of adenosine],33 nanomoles per milligrams per hour,<1 nanomoles per milligrams per hour,–,–,–
C[C@H]1O[C@@H](n2cnc3c(N)ncnc32)[C@H](O)[C@@H]1O [5′-deoxyadenosine],"50,000 nanomoles per milligrams per hour","8,400 nanomoles per milligrams per hour",–,–,–
Cc1ncnc2ncn([C@H]3C[C@H](O)[C@H](CO)O3)c12 [7-[2-deoxy-α-L-lyxofuranosyl]-6-methylpurine],<8 nanomoles per milligrams per hour,<1 nanomoles per milligrams per hour,–,–,–
Nc1nc2ncn([C@@H]3O[C@H](CO)[C@@H](O)[C@H]3O)c2c(=S)[nH]1 [7-β-D-ribosyl-6-thioguanine],435 nanomoles per milligrams per hour,66 nanomoles per milligrams per hour,–,–,–
O=c1[nH]cnc2ncn([C@@H]3O[C@H](CO)[C@@H](O)[C@H]3O)c12 [7-β-D-ribosyl-hypoxanthine],"2,300 nanomoles per milligrams per hour","5,200 nanomoles per milligrams per hour",–,–,–
Cc1ncnc2c1ncn2[C@@H]1C[C@H](O)[C@@H](CO)O1 [9-[2-deoxy-α-D-ribofuranosyl]-6-methylpurine],<8 nanomoles per milligrams per hour,<1 nanomoles per milligrams per hour,–,–,–
"Cc1ncnc2c1ncn2[C@@H]1O[C@H](C(C)(C)O)[C@@H](O)[C@H]1O [9-[5,5-dimethyl-β-D-ribofuranosyl]-6-methylpurine]",<8 nanomoles per milligrams per hour,<1 nanomoles per milligrams per hour,–,–,–
Cc1ncnc2c1ncn2[C@@H]1O[C@@H](CI)[C@@H](O)[C@H]1O [9-[5-deoxy-5-iodo-α-L-lyxofuranosyl]-6-methylpurine],<8 nanomoles per milligrams per hour,<1 nanomoles per milligrams per hour,–,–,–
Cc1ncnc2c1ncn2[C@@H]1O[C@@H](C)[C@@H](O)[C@H]1O [9-[5-deoxy-α-L-lyxofuranosyl]-6-methylpurine],246 nanomoles per milligrams per hour,20 nanomoles per milligrams per hour,–,–,–
Cc1ncnc2c1ncn2[C@@H]1O[C@H](C)[C@@H](O)[C@H]1O [9-[5-deoxy-β-D-ribofuranosyl]-6-methylpurine],"3,600 nanomoles per milligrams per hour",406 nanomoles per milligrams per hour,–,–,–
Cc1ncnc2c1ncn2[C@@H]1O[C@H]([C@@H](C)O)[C@@H](O)[C@H]1O [9-[5-methyl-(allo)-β-D-ribofuranosyl]-6-methylpurine],223 nanomoles per milligrams per hour,47 nanomoles per milligrams per hour,–,more activity,–
Cc1ncnc2c1ncn2[C@H]1C[C@H](O)[C@@H]([C@H](C)O)O1 [9-[5-methyl-(talo)-2-deoxy-β-D-ribofuranosyl]-6-methylpurine],"103,000 nanomoles per milligrams per hour","3,600 nanomoles per milligrams per hour",–,more activity,–
Cc1ncnc2c1ncn2[C@@H]1O[C@H]([C@H](C)O)[C@@H](O)[C@H]1O [9-[5-methyl-(talo)-β-D-ribofuranosyl]-6-methylpurine],"8,400 nanomoles per milligrams per hour",915 nanomoles per milligrams per hour,–,more activity,–
Cc1ncnc2c1ncn2[C@@H]1O[C@H](CO)[C@@H](O)[C@@H]1O [9-[β-D-arabinofuranosyl]-6-methylpurine],570 nanomoles per milligrams per hour,14 nanomoles per milligrams per hour,–,–,–
"Nc1ncnc2c1ncn2[C@@H]1O[C@H](CO)[C@@H](O)[C@H]1O [Adenosine, reference compound]","501,000 nanomoles per milligrams per hour",–,–,–,–

# — patent US8628767B2, “Purine nucleoside phosphorylase as enzymatic activator of nucleoside prodrugs” (priority 2008, dated 2014)
